Assays:
[1] = system: OVCAR3 ovarian cancer cells; assay: Inhibitory activity against ovarian cancer cells (OVCAR3), CellTiter-Glo viability; type: cell-based; conditions: Homo sapiens, OVCAR-3, 120 h, OVCAR3, 5 days treatment
Experimental: OVCAR3 ovarian cancer cells were cultured in a cell incubator at […] with 5% CO2 using RPMI 1640 medium with […]. On the first day, the cells were plated in a 96-well plate at a cell concentration of 2500 cells/well and cultured overnight in the incubator. On the second day, the cells were treated with compounds. The maximum compound concentration was 10 μM and was 3-fold diluted to obtain 9 concentrations, and the final concentration of DMSO was 0.1%. After the cells were cultured in the incubator for another 5 days, cell viability was tested using the Celltiter Glo assay kit (Promega), and the testing method was consistent with the operational method provided by the kit. Data were processed using GraphPad Prism 8, and IC50 was calculated.
[formula] • X: the logarithm of the compound concentration; Y: % inhibition.

CDK1/CyclinB = CDK1/CyclinB (Homo sapiens, UniProt P06493); assay: ADP-Glo kinase assay, CDK1; type: biochemical; conditions: 16.5 nM CDK1/CyclinB, 20 μM ATP (Km), Histone H1, 120 min; read-out: inhibitory activity (IC50, nM) CDK1
Experimental: The ADP-Glo kinase assay was used for testing the activity of CDKs. The compounds were diluted in 384-well plates using Echo. The starting concentration was 10 μM and was 3-fold diluted to obtain 10 concentration points, each tested in duplicate, and the final concentration of DMSO in the assay system was 1%. CDK solutions (the final concentrations were 16.5 nM CDK1/CyclinB, 1 nM CDK2/CyclinE1, 16.3 nM CDK4/CyclinD1, 11.5 nM CDK5/p25, 15.7 nM CDK6/CyclinD3, 80 nM CDK7/Cyclin H/MAT1, 15.3 nM CDK9/Cyclin T1, and 150 nM CDK12/CyclinK) prepared in assay buffer were added at 2.5 μL, and the enzymes and compounds were pre-incubated at room temperature for 10 min. ATP (the concentration was Km) & substrate solutions (20 μM ATP & 0.1 mg/mL Histone H1 Protein for CDK1/CyclinB, 15 μM ATP & 0.1 mg/mL Histone H1 Protein for CDK2/CyclinE1, 200 μM ATP & 0.2 mg/mL DYRKtide peptide for CDK4/CyclinD1, 10 μM ATP & 0.1 mg/mL Histone H1 Protein for CDK5/p25, 200 μM ATP & 0.1 mg/mL Histone H1 Protein for CDK6/CyclinD3, 70 μM ATP & 0.2 mg/mL MBP for CDK7/Cyclin H/MAT1, 60 μM ATP & 0.2 mg/mL PDKtide for CDK9/Cyclin T1, and 20 μM ATP & 80 μM pS7-CTD peptide for CDK12/CyclinK) prepared in assay buffer were added at 2.5 μL. […] Readings were taken using an Envision multimode microplate reader. Data were processed using GraphPad Prism 8, and IC50 was calculated. […]

[2] = Human liver microsome metabolism study; type: in vitro ADME
Experimental: 222.5 μL of human liver microsomes (protein concentration: 1 mg/mL) and 25 μL of NADPH ([…]) were added to an incubation plate and pre-heated for 10 min. 2.5 μL of control compound and test compound (100 μM) were added.
[…] The reaction was stopped by adding 5 volumes of cold acetonitrile containing IS (100 nM alprazolam, 200 nM caffeine, and 100 nM tolbutamide). The reaction mixture was centrifuged, and 100 μL of the supernatant was collected and mixed with 100 μL of ultrapure H2O. Then the mixture was analyzed by LC-MS/MS.
The slope value k was determined by linear regression of the natural logarithm of a curve of the parent drug remaining percentage versus incubation time.
The in-vitro half-life (in-vitro T1/2) was determined by the slope value:
Using the following equation (the average of repeated measurements), the in-vitro T½ (min) was converted to the in-vitro intrinsic clearance rate (in-vitro CLint, in μL/min/mg protein): […]

Chain of CDK1/CyclinB (P06493 whole entry, species assumed): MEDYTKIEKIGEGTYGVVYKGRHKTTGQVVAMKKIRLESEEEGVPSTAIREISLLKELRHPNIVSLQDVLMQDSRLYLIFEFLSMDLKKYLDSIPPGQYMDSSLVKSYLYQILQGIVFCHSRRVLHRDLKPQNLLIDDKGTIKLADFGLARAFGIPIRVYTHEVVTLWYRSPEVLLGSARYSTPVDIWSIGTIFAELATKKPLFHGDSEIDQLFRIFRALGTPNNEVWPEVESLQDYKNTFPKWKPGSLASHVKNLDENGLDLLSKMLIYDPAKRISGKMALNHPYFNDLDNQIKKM
Chain of CDK1/CyclinB (P14635 whole entry partner, species assumed): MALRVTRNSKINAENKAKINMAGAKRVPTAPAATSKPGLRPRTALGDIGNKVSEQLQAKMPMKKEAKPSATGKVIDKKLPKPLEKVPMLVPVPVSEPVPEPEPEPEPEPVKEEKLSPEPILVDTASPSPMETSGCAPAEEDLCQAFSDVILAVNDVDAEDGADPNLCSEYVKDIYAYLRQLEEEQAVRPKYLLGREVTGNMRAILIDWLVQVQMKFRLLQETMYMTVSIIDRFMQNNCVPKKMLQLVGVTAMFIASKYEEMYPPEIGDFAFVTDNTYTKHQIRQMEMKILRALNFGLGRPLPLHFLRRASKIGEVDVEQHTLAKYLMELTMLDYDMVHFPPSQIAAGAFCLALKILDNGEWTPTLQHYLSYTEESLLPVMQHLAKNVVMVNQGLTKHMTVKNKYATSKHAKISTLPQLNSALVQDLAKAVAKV

C[C@@H]1Cc2cnc(NCc3ccn(C)n3)nc2CN1C(=O)N[C@H](CN(C)C)c1ccccc1 [Example 2, (R)—N—((S)-2-(Dimethylamino)-1-phenylethyl)-6-methyl-2-(((1-methyl-TH-pyrazol-3-yl)methyl)amino)-5,8-dihydropyrido[3,4-d]pyrimidine-7(6H)-carboxamide]
IC50 [1]: 24.2 nM
IC50 (CDK1/CyclinB): > 10000 nM
half-life at 1 μM ([2]; human liver microsomes, in-vitro half-life): > 3.08 h
microsomal CLint at 1 μM ([2]; human liver microsomes, in-vitro intrinsic clearance): < 7.5 µL/min/mg
Remaining amount % at 0.5 min ([2]; human liver microsomes, incubation 0.5 min): 100.00%
Remaining amount % at 5 min ([2]; human liver microsomes, incubation 5 min): 105.55%
Remaining amount % at 15 min ([2]; human liver microsomes, incubation 15 min): 96.07%
Remaining amount % at 30 min ([2]; human liver microsomes, incubation 30 min): 100.48%
Remaining amount % at 60 min ([2]; human liver microsomes, incubation 60 min): 81.83%
metabolic stability in human liver microsomes compared with Janssen-01 ([2]; summary of Tables 7 and 8, statement in words): more stable metabolism

C[C@H](Nc1ncc2c(n1)CN(C(=O)N[C@H](CN(C)C)c1ccccc1)[C@H](C)C2)c1ccccn1 [Example 6, (R)—N—((S)-2-(Dimethylamino)-1-phenylethyl)-6-methyl-2-(((S)-1-(pyridin-2-yl)ethyl)amino)-5,8-dihydropyrido[3,4-d]pyrimidine-7(6H)-carboxamide]
IC50 [1]: 27.7 nM
IC50 (CDK1/CyclinB): > 10000 nM
